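Tested at 5 concentrations; 48 h exposure; 96-well plates; endpoints linearly interpolated, else capped at highest concentration. At the GI50, growth is halved. The concentration for full growth arrest is given as TGI.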
Key:
Assay in all cases: NCI anticancer screen, dose series, 48 h
786-0 renal = tested on: 786-0 renal
A498 renal = tested on: A498 renal
A549 NSCLC = tested on: A549 NSCLC
ACHN renal = tested on: ACHN renal
BT-549 breast = tested on: BT-549 breast
CAKI-1 renal = tested on: CAKI-1 renal
CCRF-CEM leukemia = tested on: CCRF-CEM leukemia
COLO 205 colon = tested on: COLO 205 colon
DU-145 prostate = tested on: DU-145 prostate
EKVX NSCLC = tested on: EKVX NSCLC
HCC-2998 colon = tested on: HCC-2998 colon
HCT-116 colon = tested on: HCT-116 colon
HCT-15 colon = tested on: HCT-15 colon
HL-60(TB) leukemia = tested on: HL-60(TB) leukemia
HOP-62 NSCLC = tested on: HOP-62 NSCLC
HOP-92 NSCLC = tested on: HOP-92 NSCLC
HS 578T breast = tested on: HS 578T breast
HT29 colon = tested on: HT29 colon
IGROV1 ovarian = tested on: IGROV1 ovarian
K-562 leukemia = tested on: K-562 leukemia
KM12 colon = tested on: KM12 colon
LOX IMVI melanoma = tested on: LOX IMVI melanoma
M14 melanoma = tested on: M14 melanoma
MALME-3M melanoma = tested on: MALME-3M melanoma
MCF7 breast = tested on: MCF7 breast
MDA-MB-231 breast = tested on: MDA-MB-231 breast
MDA-MB-435 = tested on: MDA-MB-435
MOLT-4 leukemia = tested on: MOLT-4 leukemia
NCI-H226 lung = tested on: NCI-H226 lung
NCI-H23 lung = tested on: NCI-H23 lung
NCI-H460 lung = tested on: NCI-H460 lung
NCI-H522 lung = tested on: NCI-H522 lung
NCI/ADR-RES ovarian = tested on: NCI/ADR-RES ovarian
OVCAR-3 ovarian = tested on: OVCAR-3 ovarian
OVCAR-4 ovarian = tested on: OVCAR-4 ovarian
OVCAR-5 ovarian = tested on: OVCAR-5 ovarian
OVCAR-8 ovarian = tested on: OVCAR-8 ovarian
PC-3 prostate = tested on: PC-3 prostate
RPMI-8226 leukemia = tested on: RPMI-8226 leukemia
RXF 393 renal = tested on: RXF 393 renal
SF-268 CNS = tested on: SF-268 CNS
SF-295 CNS = tested on: SF-295 CNS
SF-539 CNS = tested on: SF-539 CNS
SK-MEL-2 melanoma = tested on: SK-MEL-2 melanoma
SK-MEL-28 melanoma = tested on: SK-MEL-28 melanoma
SK-MEL-5 melanoma = tested on: SK-MEL-5 melanoma
SK-OV-3 ovarian = tested on: SK-OV-3 ovarian
SN12C renal = tested on: SN12C renal
SNB-19 CNS = tested on: SNB-19 CNS
SNB-75 CNS = tested on: SNB-75 CNS
SW-620 colon = tested on: SW-620 colon
T-47D breast = tested on: T-47D breast
TK-10 renal = tested on: TK-10 renal
U251 CNS = tested on: U251 CNS
UACC-257 melanoma = tested on: UACC-257 melanoma
UACC-62 melanoma = tested on: UACC-62 melanoma
UO-31 renal = tested on: UO-31 renal

`CN([O-])c1nc(N(C)[O-])nc(N2CCOCC2)n1.CN([O-])c1nc(N(C)[OH2+])nc(N2CCOCC2)n1.[Fe+3]` was tested. Which GI50 (786-0 renal) did it give?
The GI50 was over 100 µM.

What about the TGI (786-0 renal) of the same compound?
The TGI was over 100 µM.

And the GI50 (A498 renal)?
The GI50 was 0.0197 µM.

What about the TGI (A498 renal) of the same compound?
Its TGI is over 100 µM.

And the GI50 (A549 NSCLC)?
The GI50 was over 100 µM.

What about the TGI (A549 NSCLC) of the same compound?
Its TGI is over 100 µM.

And the GI50 (ACHN renal)?
The GI50 was over 100 µM.

And the TGI (ACHN renal)?
The TGI was over 100 µM.

And the GI50 (BT-549 breast)?
The GI50 was over 100 µM.

What about the TGI (BT-549 breast) of the same compound?
The TGI was over 100 µM.

What about the GI50 (CAKI-1 renal) of the same compound?
Its GI50 is over 100 µM.

What about the TGI (CAKI-1 renal) of the same compound?
The TGI was over 100 µM.

And the GI50 (CCRF-CEM leukemia)?
Its GI50 is over 100 µM.

What about the TGI (CCRF-CEM leukemia) of the same compound?
The TGI was over 100 µM.

And the GI50 (COLO 205 colon)?
Its GI50 is over 100 µM.

And the TGI (COLO 205 colon)?
Its TGI is over 100 µM.

And the GI50 (DU-145 prostate)?
The GI50 was over 100 µM.

What about the TGI (DU-145 prostate) of the same compound?
The TGI was over 100 µM.

What about the GI50 (EKVX NSCLC) of the same compound?
Its GI50 is over 100 µM.

What about the TGI (EKVX NSCLC) of the same compound?
The TGI was over 100 µM.

And the GI50 (HCC-2998 colon)?
Its GI50 is over 100 µM.

And the TGI (HCC-2998 colon)?
Its TGI is over 100 µM.

What about the GI50 (HCT-116 colon) of the same compound?
Its GI50 is 96.6 µM.

And the TGI (HCT-116 colon)?
Its TGI is over 100 µM.

And the GI50 (HCT-15 colon)?
Its GI50 is over 100 µM.

What about the TGI (HCT-15 colon) of the same compound?
The TGI was over 100 µM.

And the GI50 (HL-60(TB) leukemia)?
Its GI50 is over 100 µM.

And the TGI (HL-60(TB) leukemia)?
The TGI was over 100 µM.

And the GI50 (HOP-62 NSCLC)?
Its GI50 is 89.6 µM.

What about the TGI (HOP-62 NSCLC) of the same compound?
The TGI was over 100 µM.

What about the GI50 (HOP-92 NSCLC) of the same compound?
Its GI50 is 0.487 µM.

What about the TGI (HOP-92 NSCLC) of the same compound?
The TGI was over 100 µM.

And the GI50 (HS 578T breast)?
The GI50 was over 100 µM.

What about the TGI (HS 578T breast) of the same compound?
Its TGI is over 100 µM.

What about the GI50 (HT29 colon) of the same compound?
The GI50 was over 100 µM.

And the TGI (HT29 colon)?
Its TGI is over 100 µM.

What about the GI50 (IGROV1 ovarian) of the same compound?
Its GI50 is over 100 µM.

What about the TGI (IGROV1 ovarian) of the same compound?
The TGI was over 100 µM.

And the GI50 (K-562 leukemia)?
The GI50 was 48.6 µM.

And the TGI (K-562 leukemia)?
The TGI was over 100 µM.

And the GI50 (KM12 colon)?
Its GI50 is 57.1 µM.

What about the TGI (KM12 colon) of the same compound?
The TGI was over 100 µM.

And the GI50 (LOX IMVI melanoma)?
Its GI50 is 15.5 µM.

And the TGI (LOX IMVI melanoma)?
The TGI was 36 µM.

And the GI50 (M14 melanoma)?
Its GI50 is 41.5 µM.

And the TGI (M14 melanoma)?
Its TGI is over 100 µM.

What about the GI50 (MALME-3M melanoma) of the same compound?
Its GI50 is 54.9 µM.

What about the TGI (MALME-3M melanoma) of the same compound?
The TGI was over 100 µM.

What about the GI50 (MCF7 breast) of the same compound?
The GI50 was over 100 µM.

What about the TGI (MCF7 breast) of the same compound?
The TGI was over 100 µM.

And the GI50 (MDA-MB-231 breast)?
Its GI50 is over 100 µM.

And the TGI (MDA-MB-231 breast)?
The TGI was over 100 µM.

And the GI50 (MDA-MB-435)?
Its GI50 is 61.8 µM.

What about the TGI (MDA-MB-435) of the same compound?
The TGI was over 100 µM.

What about the GI50 (MOLT-4 leukemia) of the same compound?
The GI50 was over 100 µM.

And the TGI (MOLT-4 leukemia)?
The TGI was over 100 µM.

And the GI50 (NCI-H226 lung)?
The GI50 was over 100 µM.

What about the TGI (NCI-H226 lung) of the same compound?
Its TGI is over 100 µM.

And the GI50 (NCI-H23 lung)?
Its GI50 is over 100 µM.

And the TGI (NCI-H23 lung)?
The TGI was over 100 µM.

What about the GI50 (NCI-H460 lung) of the same compound?
The GI50 was 18.3 µM.

What about the TGI (NCI-H460 lung) of the same compound?
The TGI was 34.4 µM.

What about the GI50 (NCI-H522 lung) of the same compound?
The GI50 was 23.8 µM.

What about the TGI (NCI-H522 lung) of the same compound?
Its TGI is 94.7 µM.

And the GI50 (NCI/ADR-RES ovarian)?
The GI50 was over 100 µM.

And the TGI (NCI/ADR-RES ovarian)?
The TGI was over 100 µM.

And the GI50 (OVCAR-3 ovarian)?
Its GI50 is over 100 µM.

What about the TGI (OVCAR-3 ovarian) of the same compound?
The TGI was over 100 µM.

And the GI50 (OVCAR-4 ovarian)?
The GI50 was over 100 µM.

What about the TGI (OVCAR-4 ovarian) of the same compound?
Its TGI is over 100 µM.

What about the GI50 (OVCAR-5 ovarian) of the same compound?
Its GI50 is over 100 µM.

What about the TGI (OVCAR-5 ovarian) of the same compound?
The TGI was over 100 µM.

What about the GI50 (OVCAR-8 ovarian) of the same compound?
The GI50 was over 100 µM.

And the TGI (OVCAR-8 ovarian)?
The TGI was over 100 µM.

What about the GI50 (PC-3 prostate) of the same compound?
The GI50 was over 100 µM.

What about the TGI (PC-3 prostate) of the same compound?
The TGI was over 100 µM.

What about the GI50 (RPMI-8226 leukemia) of the same compound?
Its GI50 is over 100 µM.

What about the TGI (RPMI-8226 leukemia) of the same compound?
The TGI was over 100 µM.

And the GI50 (RXF 393 renal)?
The GI50 was 68.3 µM.

What about the TGI (RXF 393 renal) of the same compound?
The TGI was over 100 µM.

What about the GI50 (SF-268 CNS) of the same compound?
Its GI50 is 57.4 µM.

And the TGI (SF-268 CNS)?
Its TGI is over 100 µM.

And the GI50 (SF-295 CNS)?
The GI50 was 57.6 µM.

What about the TGI (SF-295 CNS) of the same compound?
The TGI was over 100 µM.

And the GI50 (SF-539 CNS)?
The GI50 was over 100 µM.

And the TGI (SF-539 CNS)?
Its TGI is over 100 µM.

What about the GI50 (SK-MEL-2 melanoma) of the same compound?
The GI50 was 81.8 µM.

What about the TGI (SK-MEL-2 melanoma) of the same compound?
Its TGI is over 100 µM.

What about the GI50 (SK-MEL-28 melanoma) of the same compound?
Its GI50 is 84.8 µM.

And the TGI (SK-MEL-28 melanoma)?
Its TGI is over 100 µM.

And the GI50 (SK-MEL-5 melanoma)?
Its GI50 is over 100 µM.

What about the TGI (SK-MEL-5 melanoma) of the same compound?
Its TGI is over 100 µM.

And the GI50 (SK-OV-3 ovarian)?
Its GI50 is over 100 µM.

And the TGI (SK-OV-3 ovarian)?
Its TGI is over 100 µM.

What about the GI50 (SN12C renal) of the same compound?
The GI50 was over 100 µM.

And the TGI (SN12C renal)?
Its TGI is over 100 µM.

And the GI50 (SNB-19 CNS)?
Its GI50 is over 100 µM.

And the TGI (SNB-19 CNS)?
The TGI was over 100 µM.

And the GI50 (SNB-75 CNS)?
The GI50 was over 100 µM.

And the TGI (SNB-75 CNS)?
Its TGI is over 100 µM.

What about the GI50 (SW-620 colon) of the same compound?
The GI50 was over 100 µM.

What about the TGI (SW-620 colon) of the same compound?
Its TGI is over 100 µM.

What about the GI50 (T-47D breast) of the same compound?
The GI50 was over 100 µM.

What about the TGI (T-47D breast) of the same compound?
Its TGI is over 100 µM.

What about the GI50 (TK-10 renal) of the same compound?
Its GI50 is over 100 µM.

And the TGI (TK-10 renal)?
The TGI was over 100 µM.

What about the GI50 (U251 CNS) of the same compound?
The GI50 was 27.5 µM.

What about the TGI (U251 CNS) of the same compound?
Its TGI is over 100 µM.

And the GI50 (UACC-257 melanoma)?
The GI50 was over 100 µM.

What about the TGI (UACC-257 melanoma) of the same compound?
The TGI was over 100 µM.

And the GI50 (UACC-62 melanoma)?
Its GI50 is over 100 µM.

What about the TGI (UACC-62 melanoma) of the same compound?
Its TGI is over 100 µM.

What about the GI50 (UO-31 renal) of the same compound?
The GI50 was over 100 µM.

What about the TGI (UO-31 renal) of the same compound?
Its TGI is over 100 µM.

From PubChem BioAssay (NCI)
